Here are results for 18 compounds from patent publication US8110585B2, “Bicyclic compound and pharmaceutical use thereof” (Takeda Pharmaceutical Company Limited, priority 2007, dated 2012).

Data set [1] has as its target T1, human melatonin 1 receptors (human MT1 receptors) (Homo sapiens, UniProt P48039).
T1 construct: expressed in transfected cells; membrane fraction
The data set is described as follows: Melatonin receptor binding inhibitory test, 2-[125I] Iodomelatonin, MT1. Conditions: membrane fraction of CHO-hMelR7 cells, 25° C. for 2.5 hr, read-out: binding inhibitory activity as IC50 value for MT1. The procedure: (§1) Melatonin Receptor Binding Inhibitory Test
(1) Preparation of CHO-hMelR7 Cells expressing Human Melatonin 1 Receptors
A cDNA fragment (SEQ ID NO: 1) encoding full-length of human melatonin 1 receptors (human MT1 receptors) was incorporated into expression vector pAKKO-111H (former name pAKKO1.11H; Biochim Biophys Acta. Vol. 1219(2), pp. 251-259, 1994) to give plasmid pAKKO-hMelR7 for animal cell expression. CHO/dhfr-cells (ATCC, #CRL-9096) were plated at a concentration of 0.3×10^6 cells/dish in a 6 cm culture dish (Becton Dickinson), and cultured under the conditions of 37° C., 5% CO2 for 48 hr. The cells were transfected with pAKKO-hMelR7 plasmid DNA (5 μg) using Cellphect Transfection Kit (Amersham, #27-9268-01). The transfected cells were cultured in Dulbecco's modified Eagle medium (DMEM) (Sigma, #D6046) containing 10% dialyzed FBS (Biowest, #S180D), 1× Non-Essential Amino Acid (Invitrogen, #11140-050) and 50 μg/mL Gentamycin (Invitrogen, #15750-060), and the cell line that stably expressed the plasmid gene was selected. By a receptor binding assay using 2-[^125I] Iodomelatonin, CHO-hMelR7 cell line showing specific binding of 2-[^125I] Iodomelatonin was selected from the obtained clones.
(§2) (3) Preparation of Cellular Membrane Fraction of CHO Cell (CHO-hMelR7 and CHO-hMT2) Stably Expressing Human MT1 and MT2 Receptors
(§3) CHO-hMelR7 and CHO-hMT2 cells were plated using Cellfactory (Nunc, #170009) under the conditions of 1×10^8 cells/2000 mL/flask. The cells were grown to confluent, and recovered by the following method. As the medium for CHO-hMelR7 and CHO-hMT2, MEM a containing 10% FBS and penicillin/streptomycin was used. […]
(§4) The medium was discarded, cells were washed twice with 200 mL of EDTA/PBS(−), 200 mL of EDTA/PBS(−) was further added, and the cells were stood still at room temperature for 20 min until they were released. The cells were recovered in four 50 mL tubes (Becton Dickinson, #352070), and centrifuged at 1,500 rpm for 10 min at 4° C. using a low speed cooling centrifuge (Hitachi, CF7D2). The supernatant was discarded, the pellets in the four tubes were suspended in 10 mL of PBS(−), and combined in one tube (Becton Dickinson, #352070). The mixture was further centrifuged at 1,500 rpm for 10 min at 4° C., and the obtained pellets were suspended in 20 mL of ice-cooled homogenizing buffer [10 mM NaHCO3, 5 mM EDTA, Protease inhibitor Complete (Roche), pH 7.4]. The cell suspension was homogenized 3 times using a polytron homogenizer at 20,000 rpm for 30 sec. The obtained homogenate was centrifuged (2,000 rpm, 10 min, 4° C.) using a low speed cooling centrifuge. The supernatant was recovered in an ultracentrifugation tube and ultracentrifuged (40,000 rpm, 60 min, 4° C.) using an ultracentrifuge (Beckman, L-90K). To the obtained pellets was added a suspending buffer [50 mM Tris-HCl, 1 mM EDTA, Protease inhibitor Complete (Roche), pH 7.4], and the pellets were suspended by pipetting. The protein concentration of this suspension was measured, diluted to 2 mg/mL to give cellular membrane fractions of CHO-hMelR7 and CHO-hMT2 cells. The membrane fractions were dispensed to 1.5 mL tubes (Eppendorf, #0030120.086) by 100 μL, preserved in a freezer (−80° C.) and used for a binding assay. Protein was quantified using BCA protein assay kit (Pierce) with BSA as the standard.
(§5) (4) Preparation of Membrane Fraction Suspension
(§6) Immediately before use, the membrane fractions of CHO-hMelR7 and CHO-hMT2 cells of the above-mentioned (3) were diluted 20-fold with assay buffer (50 mM Tris-HCl, pH 7.7).
(§7) (5) Preparation of 2-[^125I] Iodomelatonin Solution
(§8) 2-[^125I] Iodomelatonin (#NEX236, PerkinElmer) was diluted with the assay buffer to 400 pM for MT1 and 1 nM for MT2.
The assay buffer (80 μL) of the above-mentioned (4) was added to each well of a 96-well plate (type 3363, Corning). Then, a test compound (compound solution diluted with DMSO to 200-fold of the final measurement concentration) was added by 2 μL. […]

Data set [2] concerns the target T2, human melatonin 2 receptors (human MT2 receptors) (Homo sapiens, UniProt P49286).
T2 construct: expressed in transfected cells; membrane fraction
T2 sequence (P49286 1-362): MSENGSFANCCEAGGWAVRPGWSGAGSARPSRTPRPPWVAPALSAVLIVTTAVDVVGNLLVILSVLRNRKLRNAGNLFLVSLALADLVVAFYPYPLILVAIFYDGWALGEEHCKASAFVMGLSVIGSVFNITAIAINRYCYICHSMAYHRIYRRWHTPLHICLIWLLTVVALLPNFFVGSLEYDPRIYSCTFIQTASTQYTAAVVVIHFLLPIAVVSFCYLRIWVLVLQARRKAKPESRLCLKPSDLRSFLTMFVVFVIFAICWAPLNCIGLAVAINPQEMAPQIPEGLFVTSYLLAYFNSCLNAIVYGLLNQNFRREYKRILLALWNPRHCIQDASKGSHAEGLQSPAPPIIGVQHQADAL
The data set is described as follows: Melatonin receptor binding inhibitory test, 2-[125I] Iodomelatonin, MT2. Conditions: membrane fraction of CHO-hMT2 cells, 25° C. for 2.5 hr, read-out: binding inhibitory activity as IC50 value for MT2. The procedure:
as §1
(2) Preparation of CHO-hMT2 Cells Expressing Human Melatonin 2 Receptors
A cDNA fragment (SEQ ID NO: 2) encoding full-length of human melatonin 2 receptors (human MT2 receptors) was incorporated into expression vector pCMV-Script (Stratagene, #212220) to give the plasmid that was pCMV-human MT2 receptors expression vector for animal cell expression. CHO-K1 cells (ATCC, #CCL-61) were plated at the concentration of 1.5×10^5 cells/cm^2 in a 6 well plate (ASAHI TECHNO GLASS), and cultured under the conditions of 37° C., 5% CO2 for 24 hr. For gene transfection, solution obtained by blending pCMV-human MT2 receptors expression vector (1.9 μg), Lipofectamine Transfection Reagent (Invitrogen, #18324-012) (11.3 μL) and Minimum Essential Medium Eagle (MEM) medium (Sigma, M8042) (93.8 μL), and reacting at room temperature for 20 min was added to the cells per one well. The transfected cells were cultured in MEM medium containing 10% FBS (Life Technology) and 300 μg/mL Geneticin (GIBCO, #10131), and the cell line that stably expressed the plasmid gene was selected. By a receptor binding assay using 2-[^125I] Iodomelatonin, CHO-hMT2 cell line showing specific binding of 2-[^125I] Iodomelatonin was selected from the obtained clones.
as §2, §3, §4, §5, §6, §7, §8
The assay buffer (80 μL) of the above-mentioned (4) was added to each well of a 96-well plate (type 3363, Corning). […]

T1 sequence (P48039 whole entry): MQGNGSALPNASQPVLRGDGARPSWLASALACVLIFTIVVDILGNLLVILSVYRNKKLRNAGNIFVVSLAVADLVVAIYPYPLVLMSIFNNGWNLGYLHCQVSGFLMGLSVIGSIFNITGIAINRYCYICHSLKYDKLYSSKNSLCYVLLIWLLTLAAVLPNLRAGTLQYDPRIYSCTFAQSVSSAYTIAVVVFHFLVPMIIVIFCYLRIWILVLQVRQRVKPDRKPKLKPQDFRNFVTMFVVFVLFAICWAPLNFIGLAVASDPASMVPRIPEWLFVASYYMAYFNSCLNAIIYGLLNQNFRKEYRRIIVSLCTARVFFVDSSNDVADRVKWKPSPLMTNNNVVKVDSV

Compound `CC(=O)NC[C@@H]1C[C@H]1c1cccc2nn(C)cc12` (relative stereo) [Example 1, trans-N-{[2-(2-methyl-2H-indazol-4-yl)cyclopropyl]methyl}acetamide] came in with a melting point of 153 to 154 °C. For the same compound, in data set [1], the IC50 is ≤ 100 nM. Further, the IC50 in data set [2] is ≤ 100 nM.
For `CCC(=O)NC[C@@H]1C[C@H]1c1cccc2nn(C)cc12` (relative stereo) [Example 2, trans-N-{[2-(2-methyl-2H-indazol-4-yl)cyclopropyl]methyl}propanamide], the melting point was in the range of 104 to 106 °C. Further, in data set [1], the IC50 was ≤ 100 nM. The IC50 in data set [2] was ≤ 100 nM.
In the case of `CC(=O)NC[C@@H]1C[C@H]1c1cccn2nc(C)cc12` (relative stereo) [Example 5, trans-N-{[2-(2-methylpyrazolo[1,5-a]pyridin-4-yl)cyclopropyl]methyl}acetamide], the melting point was 114 to 115 °C. Moreover, the IC50 in data set [1] is ≤ 100 nM. For the same compound, the IC50 in data set [2] was ≤ 100 nM.
With `CCC(=O)NC[C@@H]1C[C@H]1c1cccn2nc(C)cc12` (relative stereo) [Example 6, trans-N-{[2-(2-methylpyrazolo[1,5-a]pyridin-4-yl)cyclopropyl]methyl}propanamide], the melting point is 95 to 98 °C. Moreover, the IC50 in data set [1] is ≤ 100 nM. Further, in data set [2], the IC50 is ≤ 100 nM.
In the case of `Cn1cc2c([C@@H]3C[C@H]3CNC(=O)OC(C)(C)C)cccc2n1` (relative stereo) [Example 7, trans-tert-butyl{[2-(2-methyl-2H-indazol-4-yl)cyclopropyl]methyl}carbamate], the melting point lay in the range of 120 to 121 °C.
The compound `CCC(=O)NC[C@@H]1C[C@@H]1c1cccc2nn(C)cc12` (relative stereo) [Example 14, cis-N-{[2-(2-methyl-2H-indazol-4-yl)cyclopropyl]methyl}propanamide] gave a melting point of 155 to 156 °C. The half-maximal inhibitory concentration (IC50) in data set [1] is ≤ 100 nM. Moreover, in data set [2], the IC50 is ≤ 100 nM.
For `Cc1cc2c([C@@H]3C[C@H]3CNC(=O)OC(C)(C)C)cccn2n1` (relative stereo) [Example 40, trans-tert-butyl{[2-(2-methylpyrazolo[1,5-a]pyridin-4-yl)cyclopropyl]methyl}carbamate], the melting point was in the range of 105 to 107 °C.
On the same count and under the same terms, the value for `Cc1cc2c([C@@H]3C[C@H]3CNC(=O)c3ccccc3)cccn2n1` (relative stereo) [Example 50, trans-N-{[2-(2-methylpyrazolo[1,5-a]pyridin-4-yl)cyclopropyl]methyl}benzamide] was 112 to 113 °C.
`CC(=O)NCC1CC1c1cccn2nc(C)nc12` (stereo not shown) [Example 3, N-{[2-(2-methyl[1,2,4]triazolo[1,5-a]pyridin-8-yl)cyclopropyl]methyl}acetamide] displayed a melting point of 116 to 118 °C. Further, the IC50 in data set [1] was ≤ 100 nM.
Turning to `CCC(=O)NCC1CC1c1cccn2nc(C)nc12` (stereo not shown) [Example 4, N-{[2-(2-methyl[1,2,4]triazolo[1,5-a]pyridin-8-yl)cyclopropyl]methyl}propanamide], the IC50 in data set [1] and in data set [2] was ≤ 100 nM in each case.
For `Cn1cc2c([C@H]3C[C@@H]3CNC(=O)OC(C)(C)C)cccc2n1` [Example 8, tert-butyl{[(1S,2S)-2-(2-methyl-2H-indazol-4-yl)cyclopropyl]methyl}carbamate], the melting point fell in the range of 141 to 142 °C.
The same measure, in the same setting: the value for `Cn1cc2c([C@@H]3C[C@H]3CNC(=O)OC(C)(C)C)cccc2n1` [Example 9, tert-butyl{[(1R,2R)-2-(2-methyl-2H-indazol-4-yl)cyclopropyl]methyl}carbamate] was 140 to 142 °C; that for `Cn1cc2c([C@@H]3C[C@H]3CNC(=O)c3ccc(Br)cc3)cccc2n1` [Example 15, 4-bromo-N-{[(1R,2R)-2-(2-methyl-2H-indazol-4-yl)cyclopropyl]methyl}benzamide] was 140 to 142 °C.
Turning to `CCc1ccc2nn(C)cc2c1C1CC1CNC(C)=O` (stereo not shown) [Example 32, N-{[2-(5-ethyl-2-methyl-2H-indazol-4-yl)cyclopropyl]methyl}acetamide], the IC50 in data set [1] and in data set [2] was ≤ 100 nM in each case.
`Cc1cc2c([C@H]3C[C@@H]3CNC(=O)OC(C)(C)C)cccn2n1` [Example 41, tert-butyl{[(1S,2S)-2-(2-methylpyrazolo[1,5-a]pyridin-4-yl)cyclopropyl]methyl}carbamate] displayed a melting point of 117 to 118 °C.
`Cc1cc2c([C@@H]3C[C@H]3CNC(=O)OC(C)(C)C)cccn2n1` [Example 42, tert-butyl{[(1R,2R)-2-(2-methylpyrazolo[1,5-a]pyridin-4-yl)cyclopropyl]methyl}carbamate]: the melting point was in the range of 118 to 119 °C.
On the same count and under the same terms, the value for `CC(=O)NCC1CC1c1cccc2nc(C(F)(F)F)cn12` (stereo not shown) [Example 54, N-({2-[2-(trifluoromethyl)imidazo[1,2-a]pyridin-5-yl]cyclopropyl}methyl)acetamide] was 135 to 137 °C; that for `CCC(=O)NCC1CC1c1cccc2nc(C(F)(F)F)cn12` (stereo not shown) [Example 55, N-({2-[2-(trifluoromethyl)imidazo[1,2-a]pyridin-5-yl]cyclopropyl}methyl)propanamide] was 148 to 151 °C.

The IC50 is the concentration that gives 50% inhibition. As usually defined, the melting point is the temperature of the solid-liquid transition.
